According to patent US20220370463A1, “STABILIZED C-FMS INTRACELLULAR FRAGMENTS (FICD) PROMOTE OSTEOCLAST DIFFERENTIATION AND ARTHRITIC BONE EROSION” (New York Society for the Relief of the Ruptured and …, priority 2019, published 2022):

Key:
NFATc1 [1] = assay: RANKL-induced NFATc1 expression in mouse OCPs (immunoblot, qPCR); format: cell-based
Experimental: (A and B) BMDMs from WT and FICDtg^M mice were cultured with RANKL for 24 hours. Immunoblot of whole cell lysates with phopho-p70S6K and phopho-4E-BP1 antibodies. HA-tagged FICDs were detected by HA-antibody. α-tubulin or P38 was used as a control. (C) BMDMs from female wild type LysM cre mice (WT) or RAPTORf/f-LysM cre mice (Raptor cKO) were cultured with M-CSF for 4 days and were stimulated with RANKL for the indicated days. Immunoblot of whole cell lysates with anti-Raptor, NFATc1, or α-tubulin antibodies. (D-F) BMDMs from WT mice were treated with CPG57380 at the indicated doses and then cultured with RANKL for one day. (D) Immunoblot of whole lysate with anti-NFATc1 antibody. α-tubulin was used as a control. […] The intensity of NFATc1 bands in RANKL treatment conditions (control) was set as 100%. (n=4) (E) Expression mRNA level of NFATc1. […]
(§1) Whole cell extracts were prepared by lysis in buffer containing 1× Lamin sample buffer (Bio-rad) and 2-Mercaptoethanol (Sigma) or RIPA buffer (Sigma). […] The protein concentration of nuclear extracts was quantitated using the Bradford assay (Bio-Rad; 5000001). For immunoblot, proteins were separated on 7.5 or 10% SDS-PAGE gels, transferred to polyvinylidene difluoride membranes (PVDF, Millipore; ISEQ00010), and detected by antibodies as listed in the figure legends.

[2] = tested on: BMDMs from WT and FICDtg^M mice; assay: Cell viability assay in BMDMs; format: cell-based, mouse; details: CGP57380 at the indicated doses for one day
Experimental: (a and b) BMDMs from WT and FICDtg^M mice was stimulated with RANKL (50 ng/ml) at the indicated time. (a) RT-qPCR of Nfatc1 mRNA normalized relative to Hprt mRNA. (b) Immunoblot with anti NFATc1, HA, or α-tubulin antibodies. (c and d) BMDMs from Csf1r^f/+ Mx1-Cre mice were transduced by lentiviruses encoding FMS^wt, or FMS^mut and then cultured with M-CSF and RANKL. (c) Immunoblot of whole lysate with anti-NFATc1 antibody. α-tubulin was used as a control. […] The intensity of NFATc1 in FMS^mut was set as 100%. (d) Expression mRNA level of NFATc1. (e) Immunoblot of whole cell lysates with phospho-eIF4E antibodies. HA-tagged FICD was detected by HA-antibody. α-tubulin was used as a control. […] (f and g) Human CD14+ cells were treated with CGP57380 at the indicated doses for one hour and cultured with RANKL for one day. […] (g) Nfatc1 mRNA expression was measured by qPCR relative to HPRT. A DMSO-treated RANKL condition was set as 100%. (h) Osteoclastogenesis assay. BMDMs from WT and FICDtg^M mice were treated with CPG57380 at the indicated doses and then cultured with RANKL for three days. […] Scale bar: 100 μm. (i) Cell viability assay. BMDMs WT and FICDtg^M mice was stimulated with CPG57380 at the indicated doses for one day. (j-n) K/BxN serum transfer induced arthritis model. 9-week old male C57BL/6J mice were received K/BxN serum on day 0 and day 2. […]

BMDM cells = assay: Mouse osteoclastogenesis assay in BMDMs (TRAP-positive multinuclear cells); format: cell-based
Experimental: (§2) (a and b) BMDMs from WT and FICDtg^M mice was stimulated with RANKL (50 ng/ml) at the indicated time. (a) RT-qPCR of Nfatc1 mRNA normalized relative to Hprt mRNA. (b) Immunoblot with anti NFATc1, HA, or α-tubulin antibodies. (c and d) BMDMs from Csf1r^f/+ Mx1-Cre mice were transduced by lentiviruses encoding FMS^wt, or FMS^mut and then cultured with M-CSF and RANKL. (c) Immunoblot of whole lysate with anti-NFATc1 antibody. α-tubulin was used as a control. […] The intensity of NFATc1 in FMS^mut was set as 100%. (d) Expression mRNA level of NFATc1. (e) Immunoblot of whole cell lysates with phospho-eIF4E antibodies. HA-tagged FICD was detected by HA-antibody. α-tubulin was used as a control. […] (f and g) Human CD14+ cells were treated with CGP57380 at the indicated doses for one hour and cultured with RANKL for one day. […] (g) Nfatc1 mRNA expression was measured by qPCR relative to HPRT. A DMSO-treated RANKL condition was set as 100%. (h) Osteoclastogenesis assay. […]
(A and B) BMDMs from WT and FICDtg^M mice were cultured with RANKL for 24 hours. […] HA-tagged FICDs were detected by HA-antibody. α-tubulin or P38 was used as a control. […]
For human osteoclastogenesis assays, cells were added to 96 well plates in triplicate at a seeding density of 5×10^4 cells per well. […] Multinucleated (greater than 3 nuclei), TRAP-positive osteoclasts were counted in triplicate wells. […]

NFATc1 [3] = assay: RANKL-induced NFATc1 expression in human OCPs (immunoblot, qPCR); format: cell-based
Experimental: as §2, with “100%.” for “100%. (h) Osteoclastogenesis assay.”
as §1

osteoclastogenesis = details: inhibiting proteosomal degradation; cited from earlier work
[4] = CGP57380, RANKL for one day, qPCR

| SMILES | Nfatc1 mRNA expression (NFATc1 [1]; [4]) | RANKL-induced NFATc1 protein expression (NFATc1 [1]; CGP57380, then RANKL for one day) | cell viability [2] | enhanced osteoclastogenesis in FICDtg^M cells (BMDM cells; BMDMs from FICDtg^M mice, RANKL for three days) | osteoclast differentiation (BMDM cells; BMDMs from WT mice, RANKL for 3 days) | Nfatc1 mRNA expression (NFATc1 [3]; [4]) | RANKL-induced NFATc1 protein expression (NFATc1 [3]; CGP57380 one hour, then RANKL for one day) | osteoclastogenesis (osteoclastogenesis) |
| --- | --- | --- | --- | --- | --- | --- | --- | --- |
| Nc1ncnc2n[nH]c(Nc3ccc(F)cc3)c12 [CGP57380] | marginally changed | suppressed RANKL-induced NFATc1 protein expression in a dose-dependent manner | minimal effect | inhibited the enhanced osteoclastogenesis in FICDtg^M cells to become comparable to osteoclasts in WT cells | suppressed osteoclast differentiation in a dose-dependent manner | marginally changed | suppressed RANKL-induced NFATc1 protein expression in a dose-dependent manner | – |
| CC(C)C[C@H](NC(=O)[C@H](Cc1ccccc1)NC(=O)c1cnccn1)B(O)O [bortezomib] | – | – | – | – | – | – | – | suppresses osteoclastogenesis |
